Read-outs that look alike come from different tables or passages of the source.
Tests used:
[1] = test system: symmetric di-methyl arginine in Z-138 cells; experiment: Z-138 Methylation Assay (In Cell Western for symmetric di-methyl arginine and DNA content); format: cell-based; conditions: Homo sapiens, read-out: ICW EC50
Outline: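 Z-138 cells (50,000 cells/mL) treated with compound 96 h at 37 °C, then fixed and stained for symmetric di-methyl arginine (800 nm) with DRAQ5 DNA counterstain (700 nm) on Licor Odyssey.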

Z-138 cell line = experiment: Z-138 Proliferation Assay (Cell Titer Glo, 5 days); format: cell-based; conditions: Homo sapiens, 120 h, Z-138 cells, 5 days, read-out: Proliferation EC50
Outline: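 Z-138 cells exposed 5 days at 37 °C, 5% CO2 to nine-point 3-fold dilutions (final top 20 μM, 0.2% DMSO), in triplicate. Viability read as ATP by CellTiter-Glo luminescence; IC50 from 4-parameter fit of normalized dose-response curves.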

PRMT5/MEP50 = PRMT5/MEP50 (Homo sapiens (Human), UniProt O14744); experiment: PRMT5 Biochemical Assay (PRMT5/MEP50 enzyme assay on peptide substrate, 3H-SAM Flashplate)
Sequence of PRMT5/MEP50 (O14744 other isoform, or with tags, fused parts or gaps): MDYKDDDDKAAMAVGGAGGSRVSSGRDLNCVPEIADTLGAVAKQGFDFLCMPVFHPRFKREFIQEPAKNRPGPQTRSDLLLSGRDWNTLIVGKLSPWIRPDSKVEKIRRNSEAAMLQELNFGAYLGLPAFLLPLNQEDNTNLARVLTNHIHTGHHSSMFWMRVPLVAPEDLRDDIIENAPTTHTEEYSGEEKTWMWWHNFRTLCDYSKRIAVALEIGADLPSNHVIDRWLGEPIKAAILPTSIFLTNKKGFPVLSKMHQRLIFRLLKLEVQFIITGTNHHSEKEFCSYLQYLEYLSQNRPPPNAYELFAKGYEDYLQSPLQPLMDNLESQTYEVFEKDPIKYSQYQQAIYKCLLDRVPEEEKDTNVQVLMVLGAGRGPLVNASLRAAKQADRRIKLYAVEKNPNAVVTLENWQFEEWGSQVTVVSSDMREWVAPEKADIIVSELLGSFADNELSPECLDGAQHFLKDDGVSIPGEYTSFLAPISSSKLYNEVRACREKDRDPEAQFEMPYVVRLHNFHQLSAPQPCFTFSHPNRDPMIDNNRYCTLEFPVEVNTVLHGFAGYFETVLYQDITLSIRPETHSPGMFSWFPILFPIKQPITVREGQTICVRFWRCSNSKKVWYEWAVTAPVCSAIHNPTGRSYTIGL
Sequence of PRMT5/MEP50 (Q9BQA1 other isoform, or with tags, fused parts or gaps partner): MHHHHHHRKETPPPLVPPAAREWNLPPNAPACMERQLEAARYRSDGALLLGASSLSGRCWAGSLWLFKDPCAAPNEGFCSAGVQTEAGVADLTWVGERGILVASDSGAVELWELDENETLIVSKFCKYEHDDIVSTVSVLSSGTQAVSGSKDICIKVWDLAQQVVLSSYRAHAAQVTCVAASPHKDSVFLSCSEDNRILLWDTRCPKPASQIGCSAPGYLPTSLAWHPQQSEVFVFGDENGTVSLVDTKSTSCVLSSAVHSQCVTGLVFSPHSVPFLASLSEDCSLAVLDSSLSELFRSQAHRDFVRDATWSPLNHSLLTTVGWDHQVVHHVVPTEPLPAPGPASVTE
Outline: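 Radiometric methylation of a biotin-tagged H4(1-15) peptide by human PRMT5/MEP50 from baculovirus/Sf9, with ³H-SAM incorporation read on streptavidin Flashplates. Buffer: Bicine pH 7.6, TCEP, BSG, Tween20; compound preincubated 30 min at 25 °C; stopped with 600 µM final unlabeled SAM. DMSO and SAH controls; IC50 from fitted % inhibition.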

| EC50 ([1]; In Cell Western methylation) [nM] | IC50 (PRMT5/MEP50; PRMT5 biochemical assay) [nM] | EC50 [1] [nM] | IC50 (PRMT5/MEP50) [nM] | Structure (SMILES) | EC50 (Z-138 cell line; Cell Titer Glo) [nM] | EC50 (Z-138 cell line) [nM] |
| --- | --- | --- | --- | --- | --- | --- |
| < 100 | < 100 |  |  | O=C(NC[C@H](O)CN1CCc2ccccc2C1)c1cc(NC2CNC2)ccn1 [Compound 565] | 101 to 1000 |  |
| < 100 | < 100 |  |  | CC(=O)N1CC(Nc2cc(C(=O)NC[C@H](O)CN3CCc4ccccc4C3)nc(C(C)C)n2)C1 [Compound 457] | < 100 |  |
|  |  | < 100 | < 100 | CC(C)NCCOc1ccc(C(=O)NC[C@H](O)CN2CCc3ccccc3C2)cc1 [Compound 390] |  | 1000 to 10000 |
| < 100 | < 100 |  |  | CCCC(=O)N1CCC(Nc2cc(C(=O)NC[C@H](O)CN3CCc4ccccc4C3)ncn2)CC1 [Compound 407] | < 100 |  |
| < 100 | < 100 |  |  | CC(=O)N1CCC(Nc2cc(C(=O)NC[C@H](O)CN3CCc4ccccc4C3)nc(N3CCOCC3)c2)CC1 [Compound 678] | 101 to 1000 |  |
| 101 to 1000 | < 100 |  |  | CNCCN(C)c1nc(NC2CNC2)cc(C(=O)NC[C@H](O)CN2CCc3ccccc3C2)n1 [Compound 482] | 1000 to 10000 |  |
| 101 to 1000 | < 100 |  |  | CCN(C)[C@H]1CC[C@@H](Nc2cc(C(=O)NC[C@H](O)CN3CCc4ccccc4C3)ncn2)CC1 [Compound 631] | > 5000 |  |
| < 100 | < 100 |  |  | CC(=O)N1CCC(Nc2cc(C(=O)NC[C@H](O)CN3CCc4ccc(C)cc4C3)ncn2)CC1 [Compound 668] | 1000 to 10000 |  |
| 101 to 1000 | < 100 |  |  | CC(=O)N1CC(Nc2cc(C(=O)NCCCN3CCc4ccccc4C3)ncn2)C1 [Compound 652] | > 5000 |  |
| > 1000 | 101 to 1000 |  |  | CC(=O)N1CC(Nc2cc(C(=O)NCC(O)C(C)N3CCc4ccccc4C3)ncn2)C1 (stereo not drawn) [Compound 608] | > 5000 |  |
| 101 to 1000 | < 100 |  |  | CN[C@H]1CC[C@@H](Nc2cc(C(=O)NC[C@H](O)CN3CCc4ccccc4C3)ncn2)CC1 [Compound 630] | > 5000 |  |
| < 100 | < 100 |  |  | O=C(NC[C@H](O)CN1CCc2ccccc2C1)c1cc(N[C@H]2C[C@H](O)C2)ncn1 [Compound 521] | 101 to 1000 |  |
| 101 to 1000 | < 100 |  |  | CS(=O)(=O)CCN1CC(Nc2cc(C(=O)NC[C@H](O)CN3CCc4ccccc4C3)ncn2)C1 [Compound 580] | > 5000 |  |
|  |  | > 1000 | 101 to 1000 | O=C(NC[C@H](O)CN1CCc2ccccc2C1)c1ccc2cccnc2c1O [Compound 344] |  | 1000 to 10000 |
| 101 to 1000 | < 100 |  |  | O=C(NC[C@H](O)CN1CCc2ccccc2C1)c1cc(NC2CNC2)nc(N2CCN(C(=O)C3CC3)CC2)n1 [Compound 485] | 1000 to 10000 |  |
| < 100 | < 100 |  |  | CCC(=O)N1CCN(c2nc(NC3COC3)cc(C(=O)NC[C@H](O)CN3CCc4ccccc4C3)n2)CC1 [Compound 462] | < 100 |  |
| < 100 | < 100 |  |  | CN[C@H]1CC[C@H](Nc2cc(C(=O)NC[C@H](O)CN3CCc4ccccc4C3)ncn2)CC1 [Compound 661] | 101 to 1000 |  |
|  |  | < 100 | < 100 | CN(C)CCCNc1cc(C(=O)NC[C@H](O)CN2CCc3ccccc3C2)ncn1 [Compound 354] |  | 1000 to 10000 |
| 101 to 1000 | < 100 |  |  | CN(C)c1nc(NC2CNC2)cc(C(=O)NC[C@H](O)CN2CCc3ccccc3C2)n1 [Compound 529] | 101 to 1000 |  |
|  |  | < 100 | < 100 | Cc1cnc(NC2CN(S(C)(=O)=O)C2)cc1C(=O)NC[C@H](O)CN1CCc2ccccc2C1 [Compound 379] |  | 1000 to 10000 |

| EC50 ([1]; In Cell Western methylation) [nM] | IC50 (PRMT5/MEP50; PRMT5 biochemical assay) [nM] | EC50 [1] [nM] | IC50 (PRMT5/MEP50) [nM] | Structure (SMILES) | EC50 (Z-138 cell line; Cell Titer Glo) [nM] | EC50 (Z-138 cell line) [nM] |
| --- | --- | --- | --- | --- | --- | --- |
| < 100 | < 100 |  |  | O=C(NC[C@H](O)CN1CCc2ccccc2C1)c1cc(NC2COC2)nc(N2CCCCC2)n1 [Compound 414] | < 100 |  |
|  |  | 101 to 1000 | 101 to 1000 | O=C(NC[C@H](O)CN1CCc2ccccc2C1)c1cncc(NC2CCN(CC(F)(F)F)C2)c1 (stereo partly drawn) [Compound 303] |  | 1000 to 10000 |
| < 100 | < 100 |  |  | O=C(NC[C@H](O)CN1CCc2ccccc2C1)c1cc(NC2CN(C(=O)C3CC3)C2)ccn1 [Compound 636] | < 100 |  |
| < 100 | < 100 |  |  | CC(C)(C)C(=O)N1CC(Nc2cc(C(=O)NC[C@H](O)CN3CCc4ccccc4C3)ccn2)C1 [Compound 505] | 101 to 1000 |  |
| < 100 | < 100 |  |  | CCC(=O)N1CCN(c2nc(NC3CNC3)cc(C(=O)NC[C@H](O)CN3CCc4ccccc4C3)n2)CC1 [Compound 484] | 1000 to 10000 |  |
| < 100 | < 100 |  |  | CN1CCCCC1CNc1cc(C(=O)NC[C@H](O)CN2CCc3ccccc3C2)ccn1 (stereo partly drawn) [Compound 411] | 101 to 1000 |  |
| < 100 | < 100 |  |  | CC(C)(C)c1nc(NC2CNC2)cc(C(=O)NC[C@H](O)CN2CCc3ccccc3C2)n1 [Compound 522] | 1000 to 10000 |  |
| < 100 | < 100 |  |  | CC(=O)N1CC(Nc2ccnc(C(=O)NC[C@H](O)CN3CCc4ccccc4C3)c2)C1 [Compound 635] | < 100 |  |
| 101 to 1000 | 101 to 1000 |  |  | CC(=O)N1CCC(Nc2cc(C(=O)NCC(O)C(C)N3CCc4ccccc4C3)ccn2)CC1 (stereo not drawn) [Compound 692] | > 5000 |  |
| < 100 | < 100 |  |  | CC(NC(=O)c1cc(NC2COC2)ncn1)[C@@H](O)CN1CCc2ccccc2C1 (stereo partly drawn) [Compound 492] | 1000 to 10000 |  |
|  |  | < 100 | < 100 | CC(=O)N1CCC(Oc2cncc(C(=O)NC[C@H](O)CN3CCc4ccccc4C3)c2)CC1 [Compound 304] |  | 1000 to 10000 |
| < 100 | < 100 |  |  | CC(C)CC(=O)N1CC(Nc2cc(C(=O)NC[C@H](O)CN3CCc4ccccc4C3)ccn2)C1 [Compound 504] | < 100 |  |
| < 100 | < 100 |  |  | CC(=O)N1CCC[C@@H](Nc2cc(C(=O)NC[C@H](O)CN3CCc4ccccc4C3)ncn2)C1 [Compound 571] | 1000 to 10000 |  |
| < 100 | < 100 |  |  | O=C(NC[C@H](O)CN1CCc2ccccc2C1)c1cc(NC2COC2)nc(NC2COC2)n1 [Compound 547] | < 100 |  |
| < 100 | < 100 |  |  | O=C(NC[C@H](O)CN1CCc2ccccc2C1)c1cc(NC2COC2)ccn1 [Compound 435] | 101 to 1000 |  |
| > 1000 | < 100 |  |  | Cc1cnc(NC2CCNC2)cc1C(=O)NC[C@H](O)CN1CCc2ccccc2C1 (stereo partly drawn) [Compound 400] | > 20000 |  |
| > 1000 | 101 to 1000 |  |  | CC(C)(O)CNCC1CN2C=NC(C(=O)NC[C@H](O)CN3CCc4ccccc4C3)=CC2=N1 (stereo partly drawn) [Compound 603] | 1000 to 10000 |  |
| > 1000 | < 100 |  |  | O=C(NC[C@H](O)CN1CCc2ccccc2C1)c1cnnc(NC2CCNC2)c1 (stereo partly drawn) [Compound 686] | > 5000 |  |
| 101 to 1000 | < 100 |  |  | CCN1CCN(c2nc(NC3CNC3)cc(C(=O)NC[C@H](O)CN3CCc4ccccc4C3)n2)CC1 [Compound 466] | 1000 to 10000 |  |

| Structure (SMILES) | EC50 ([1]; In Cell Western methylation) [nM] | IC50 (PRMT5/MEP50; PRMT5 biochemical assay) [nM] | EC50 [1] [nM] | IC50 (PRMT5/MEP50) [nM] | EC50 (Z-138 cell line; Cell Titer Glo) [nM] | EC50 (Z-138 cell line) [nM] |
| --- | --- | --- | --- | --- | --- | --- |
| NC(=O)c1cccc(C(=O)NCC(O)CN2CCc3ccccc3C2)c1 (stereo not drawn) [Compound 25] |  |  | 1000 to 10000 | 101 to 1000 |  | > 20000 |

Reference: patent US10307413B2, “Tetrahydro- and dihydro-isoquinoline PRMT5 inhibitors and uses thereof” (Epizyme, Inc., priority 2013, dated 2019)
